Source: patent publication US20060069132A1, “Azolecarboxamide herbicides” (priority 2004, published 2006)

How the values were obtained:
corn = assay: Test B pre-/postemergence herbicide test; assay type: in vivo, Zea mays; conditions: for Corn plant response rating: postemergence
Procedure, shortened: (§1)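 Plants compared with untreated controls 13–15 days post-treatment and given a visual 0–100 injury score. Applications: preemergence to seeds; postemergence at 1- to 4-leaf (2–18 cm); paddy species flooded, 2-leaf stage. Vehicle non-phytotoxic, surfactant included.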

morningglory = assay: Test B pre-/postemergence herbicide test; assay type: in vivo, Ipomoea coccinea; conditions: for Morningglory plant response rating: postemergence
Procedure, shortened: (§2)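 Greenhouse pot assay with simultaneous preemergence (treated seed) and postemergence (2–18 cm seedlings) applications of surfactant-containing, non-phytotoxic solvent formulations. Response scored visually 13–15 days later on a 0–100 scale, 100 meaning complete control.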

Surinam grass = assay: Test B pre-/postemergence herbicide test; assay type: in vivo, Urochloa decumbens; conditions: for Surinam Grass plant response rating: postemergence
Procedure, shortened: as §1

wheat = assay: Test B postemergence herbicide test; assay type: in vivo, Triticum aestivum; set-up: key to Wheat plant response rating: 0 = no effect, 100 = complete control; conditions: postemergence
Procedure, shortened: (§3)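 Postemergence plants were sprayed with formulated test chemicals at 2 to 18 cm height (1- to 4-leaf stage); paddy species were grown to the 2-leaf stage. After 13 to 15 days in a greenhouse, injury was rated visually against untreated controls on a 0–100 scale (0 = no effect, 100 = complete control).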

ducksalad = assay: Test B flooded paddy test; assay type: in vivo, Heteranthera limosa; conditions: 1000 g ai/ha, scale 0 to 100 (0 no effect, 100 complete control)
Procedure, shortened: (§4)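 Greenhouse test; postemergence application to plants at 1–4 leaves (2–18 cm); paddy species at 2 leaves; evaluated visually vs controls at 13–15 days; scale 0–100 (100 = complete control).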

wild oat = assay: Test B postemergence herbicide test; assay type: in vivo, Avena fatua; conditions: postemergence
Procedure, shortened: as §3

cocklebur = assay: Test B pre-/postemergence herbicide test; assay type: in vivo, Xanthium strumarium; conditions: for Cocklebur plant response rating: postemergence
Procedure, shortened: as §2

rice = assay: Test B flooded paddy test; assay type: in vivo, Oryza sativa; conditions: 1000 g ai/ha, scale 0 to 100 (0 no effect, 100 complete control)
Procedure, shortened: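 Formulated test chemicals went onto postemergence plants measuring 2 to 18 cm, at one to four leaves. For the paddy assay, species had reached two leaves. Scoring took place 13–15 days later by eye, relative to untreated plants, using 0 for no effect up to 100 for full control.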

giant foxtail = assay: Test B pre-/postemergence herbicide test; assay type: in vivo, Setaria faberi; conditions: for Foxtail, Giant plant response rating: postemergence
Procedure, shortened: as §1

barnyardgrass = assay: Test B pre-/postemergence herbicide test; assay type: in vivo, Echinochloa crus-galli; conditions: for Barnyardgrass plant response rating: postemergence
Procedure, shortened: as §2

velvetleaf = assay: Test B pre-/postemergence herbicide test; assay type: in vivo, Abutilon theophrasti; conditions: for Velvetleaf plant response rating: postemergence
Procedure, shortened: as §1

blackgrass = assay: Test B postemergence herbicide test; assay type: in vivo, Alopecurus myosuroides; conditions: postemergence
Procedure, shortened: as §4

pigweed = assay: Test B pre-/postemergence herbicide test; assay type: in vivo, Amaranthus retroflexus; conditions: for Pigweed plant response rating: postemergence
Procedure, shortened: as §1

[1] = test system: small flower umbrella sedge; assay: Test B flooded paddy test; assay type: in vivo, Cyperus difformis; conditions: 1000 g ai/ha, scale 0 to 100 (0 no effect, 100 complete control)
Procedure, shortened: as §4

large crabgrass = assay: Test B pre-/postemergence herbicide test; assay type: in vivo, Digitaria sanguinalis; conditions: for Crabgrass, Large plant response rating: postemergence
Procedure, shortened: as §1

[2] = 125 g ai/ha, 0 is no effect, 100 is complete control, preemergence
[3] = 125 g ai/ha, visual rating, scale 0 (no effect) to 100 (complete control)
[4] = 500 g ai/ha, visual rating, 0 = no effect, 100 = complete control, preemergence
[5] = 500 g ai/ha, scale 0 to 100, 0 is no effect, 100 is complete control

C#CCNC(=O)c1cccc(NC(=O)c2sc(C(C)(C)C)nc2CC)c1 [Compound 319]
10: Plant response rating (0 to 100 scale), Corn (corn; [2]) | Plant response rating (0 to 100 scale), Morningglory (morningglory; [2]) | Morningglory plant response rating (morningglory; [3]) | Surinam Grass plant response rating (Surinam grass; [3]) | Wheat plant response rating (wheat; [3]) | Plant response rating, Cocklebur (cocklebur; [4]) | Velvetleaf plant response rating (velvetleaf; [3])
70: Rice plant response rating (rice)
50: Plant response rating, Foxtail, Giant (giant foxtail; [4]) | Plant response rating (0 to 100 scale), Barnyardgrass (barnyardgrass; [2]) | Plant response rating (0 to 100 scale), Crabgrass, Large (large crabgrass; [2])
90: Ducksalad plant response rating (ducksalad)
80: Plant response rating, Barnyardgrass (barnyardgrass; [4]) | Sedge, Umbrella plant response rating [1]
60: Plant response rating, Surinam Grass (Surinam grass; [4]) | Plant response rating (0 to 100 scale), Pigweed (pigweed; [2])
30: Wheat plant response rating (wheat; [5]) | Foxtail, Giant plant response rating (giant foxtail; [5]) | Plant response rating, Velvetleaf (velvetleaf; [4]) | Pigweed plant response rating (pigweed; [3])
0: Plant response rating (0 to 100 scale), Cocklebur (cocklebur; [2]) | Barnyardgrass plant response rating (barnyardgrass; [3]) | Plant response rating (0 to 100 scale), Velvetleaf (velvetleaf; [2]) | Blackgrass plant response rating (blackgrass; [3]) | Blackgrass plant response rating (blackgrass; [5])
100: Plant response rating, Pigweed (pigweed; [4]) | Plant response rating, Crabgrass, Large (large crabgrass; [4])
40: Plant response rating, Corn (corn; [4]) | Cocklebur plant response rating (cocklebur; [5]) | Pigweed plant response rating (pigweed; [5])
20: Corn plant response rating (corn; [3]) | Corn plant response rating (corn; [5]) | Plant response rating, Morningglory (morningglory; [4]) | Morningglory plant response rating (morningglory; [5]) | Plant response rating (0 to 100 scale), Surinam Grass (Surinam grass; [2]) | Surinam Grass plant response rating (Surinam grass; [5]) | Oat, Wild plant response rating (wild oat; [3]) | Oat, Wild plant response rating (wild oat; [5]) | Cocklebur plant response rating (cocklebur; [3]) | Plant response rating (0 to 100 scale), Foxtail, Giant (giant foxtail; [2]) | Foxtail, Giant plant response rating (giant foxtail; [3]) | Barnyardgrass plant response rating (barnyardgrass; [5]) | Velvetleaf plant response rating (velvetleaf; [5]) | Crabgrass, Large plant response rating (large crabgrass; [3]) | Crabgrass, Large plant response rating (large crabgrass; [5])
